# Measured values: patent US7138361B2, “Herbicidal heterocycles” (E. I. du Pont de Nemours and Company, priority 2000, dated 2006)
# What was measured:
# Format in all cases: in vivo
# [1] = system: Surinam grass (Brachiaria decumbens); assay: Test B preemergence
# How it was run: (§1)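 Preemergence: seeds planted and treated with test chemicals in non-phytotoxic solvent with surfactant; postemergence on plants 2–18 cm (1- to 4-leaf stage). Kept in greenhouse 13–15 days, then visually rated against controls on a 0 (no effect) to 100 (complete control) scale.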
# [2] = system: barnyardgrass (Echinochloa crus-galli); assay: Test B preemergence
# How it was run: as §1
# [3] = system: cocklebur (Xanthium strumarium); assay: Test B preemergence
# How it was run: as §1
# [4] = system: corn (Zea mays); assay: Test B preemergence
# How it was run: as §1
# [5] = system: crabgrass (Digitaria sanguinalis); assay: Test B preemergence
# How it was run: as §1
# [6] = system: giant foxtail (Setaria faberii); assay: Test B preemergence
# How it was run: as §1
# [7] = system: lambsquarters (Chenopodium album); assay: Test B preemergence
# How it was run: as §1
# [8] = system: morning glory (Ipomoea hederacea); assay: Test B preemergence
# How it was run: as §1
# [9] = system: pigweed (Amaranthus retroflexus); assay: Test B preemergence
# How it was run: as §1
# [10] = system: rice (Oryza saliva); assay: Test B preemergence
# How it was run: as §1
# [11] = system: velvetleaf (Abutilon theophrasti); assay: Test B preemergence
# How it was run: as §1
# [12] = system: Surinam grass (Brachiaria decumbens); assay: Test C preemergence
# How it was run: (§2)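 Preemergence: seeds sown then treated. Postemergence: plants 2–18 cm, 1- to 4-leaf. Both with surfactant-containing solvent formulation; visual injury scored 0–100 after 12–14 d.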
# [13] = system: bermudagrass (Cynodon dactylon); assay: Test C preemergence
# How it was run: as §2
# [14] = system: cocklebur (Xanthium strumarium); assay: Test C preemergence
# How it was run: as §2
# [15] = system: crabgrass (Digitaria sanguinalis); assay: Test C preemergence
# How it was run: as §2
# [16] = system: giant foxtail (Setaria faberii); assay: Test C preemergence
# How it was run: as §2
# [17] = system: kochia (Kochia scoparia); assay: Test C preemergence
# How it was run: as §2
# [18] = system: pigweed (Amaranthus retroflexus); assay: Test C preemergence
# How it was run: as §2
# [19] = system: soybean (Glycine max); assay: Test C preemergence
# How it was run: as §2
# [20] = system: woolly cupgrass (Eriochloa villosa); assay: Test C preemergence
# How it was run: as §2
# [21] = system: Nightshade; assay: Test C preemergence; conditions: Rate 500 g/ha, visual evaluation after 12 to 14 days
# [22] = system: Sunflower; assay: Test C preemergence; conditions: Rate 250 g/ha, scale 0 to 100, 0 no effect, 100 complete control
# [23] = Preemergence, Rate 500 g/ha, scale 0 to 100, 0 no effect, 100 complete control
# [24] = preemergence, Rate 125 g/ha, scale of 0 to 100 where 0 is no effect and 100 is complete control, 13 to 15 days
# [25] = Rate 125 g/ha, scale 0 to 100, 0 no effect, 100 complete control
# [26] = preemergence, Rate 62 g/ha, scale 0 to 100
# [27] = preemergence, Rate 500 g/ha, visual evaluation after 12 to 14 days
# [28] = preemergence, Rate 250 g/ha, scale 0 to 100, 0 no effect, 100 complete control
compound,measurement,setting,value
CC(C)(C)c1ccn(C2CCN(c3cccc(SC(F)(F)F)c3)C2=O)n1 (stereo not drawn) [Compound 93],"Plant response rating, Surinam grass",[1]; [23],70
same,"Plant response rating, Surinam grass",[1]; [24],0
same,"Plant response rating, Barnyardgrass",[2]; [23],100
same,"Plant response rating, Barnyardgrass",[2]; [24],0
same,"Plant response rating, Cocklebur",[3]; [23],0
same,"Plant response rating, Cocklebur",[3]; [24],0
same,"Plant response rating, Corn",[4]; [23],0
same,"Plant response rating, Corn",[4]; [24],0
same,"Plant response rating, Crabgrass",[5]; [23],100
same,"Plant response rating, Crabgrass",[5]; [24],20
same,"Plant response rating, Foxtail, Giant",[6]; [23],90
same,"Plant response rating, Foxtail, Giant",[6]; [24],20
same,"Plant response rating, Lambsquarters",[7]; [23],100
same,"Plant response rating, Lambsquarters",[7]; [24],60
same,"Plant response rating, Morningglory",[8]; [23],0
same,"Plant response rating, Morningglory",[8]; [24],0
same,"Plant response rating, Pigweed",[9]; [23],80
same,"Plant response rating, Pigweed",[9]; [24],0
same,"Plant response rating, Rice",[10]; [23],0
same,"Plant response rating, Rice",[10]; [24],0
same,"Plant response rating, Velvetleaf",[11]; [23],0
same,"Plant response rating, Velvetleaf",[11]; [24],0
same,"Plant response rating, Surinam grass",[12]; [25],10
same,"Plant response rating, Surinam grass",[12]; [26],0
same,"Plant response rating (0 to 100), Surinam grass",[12]; [27],70
same,"Plant response rating, Surinam grass",[12]; [28],30
same,"Plant response rating, Bermudagrass",[13]; [25],90
same,"Plant response rating, Bermudagrass",[13]; [26],0
same,"Plant response rating (0 to 100 where 0 is no effect and 100 is complete control), Bermudagrass",[13]; [27],100
same,"Plant response rating, Bermudagrass",[13]; [28],100
same,"Plant response rating, Cocklebur",[14]; [25],0
same,"Plant response rating, Cocklebur",[14]; [26],0
same,"Plant response rating (0 to 100), Cocklebur",[14]; [27],20
same,"Plant response rating, Cocklebur",[14]; [28],0
same,"Plant response rating, Crabgrass",[15]; [25],100
same,"Plant response rating, Crabgrass",[15]; [26],80
same,"Plant response rating (0 to 100), Crabgrass",[15]; [27],100
same,"Plant response rating, Crabgrass",[15]; [28],100
same,"Plant response rating, Foxtail, Giant",[16]; [25],20
same,"Plant response rating, Foxtail, Giant",[16]; [26],0
same,"Plant response rating (0 to 100), Foxtail, Giant",[16]; [27],60
same,"Plant response rating, Foxtail, Giant",[16]; [28],20
same,"Plant response rating, Kochia",[17]; [25],0
same,"Plant response rating, Kochia",[17]; [26],0
same,"Plant response rating (0 to 100), Kochia",[17]; [27],80
same,"Plant response rating, Kochia",[17]; [28],30
same,"Plant response rating, Pigweed",[18]; [25],20
same,"Plant response rating, Pigweed",[18]; [26],0
same,"Plant response rating (0 to 100), Pigweed",[18]; [27],80
same,"Plant response rating, Pigweed",[18]; [28],20
same,"Plant response rating, Soybean",[19]; [25],0
same,"Plant response rating, Soybean",[19]; [26],0
same,"Plant response rating (0 to 100), Soybean",[19]; [27],20
same,"Plant response rating, Soybean",[19]; [28],0
same,"Plant response rating, Cupgrass, Woolly",[20]; [25],20
same,"Plant response rating, Cupgrass, Woolly",[20]; [26],0
same,"Plant response rating (0 to 100), Cupgrass, Woolly",[20]; [27],80
same,"Plant response rating, Cupgrass, Woolly",[20]; [28],70
same,"Plant response rating (0 to 100), Nightshade",[21],10
same,"Plant response rating, Sunflower",[22],0
